What was measured:
[1] = system: stage 4 neural stem cells; test: HD-DoE 8-factor experiment for stage 5 recipe (Forskolin, Arachidonic acid, VPA, BDNF, BT13, O-LPA, GW7646, Sodium pyruvate), optimized for PVALB; type: cell-based, human; conditions: for impact on expression of PVALB: dynamic profile analysis, FIG. 26; for factor contribution on expression of PVALB: positive, model optimized for maximum expression of PVALB, FIG. 25
Description: To further guide the differentiation of forebrain-committed neural stem cells to PVALB interneuron cells, an additional HD-DoE experiment was performed for 3 days on cells that were treated with stage 1 to stage 4 media for total of 12 days prior to start of the experiment. This experiment included 8 effectors, Forskolin, Arachidonic acid, VPA, BDNF, BT13, O-LPA, GW7646, and Sodium pyruvate. In this model, we focused on maximum expression of PVALB gene expressed in PVALB (+) interneurons (Nahar et al. (2021) Front. Psych. 12:679960). When the model was optimized for maximum expression of PVALB, Forskolin, GW7646, Sodium Pyruvate had the highest factor contributions, 3.14, 27.2, and 17.1 respectively (FIG. 25).
So, it was excluded in the recipe.

[2] = system: stage 4 neural stem cells; test: factor criticality analysis of stage 5 recipe; type: cell-based, human; conditions: FIG. 28-30
Description: To assess the impact of elimination of each validated factor, we again used dynamic profile analysis and compared the expression level of genes of interest in the absence of each finalized factor while others are present.
In the stage 5 recipe, each of seven finalized factors were removed while other factors were kept present and expression levels of PVALB and SST were assessed compared to the presence of all seven factors. […] 2-phospho-L-ascorbic acid, BDNF, IGF-1 were included in the stage 5 recipe (FIG. 28). […] Others were also found to increase the expression of somatostatin that was SST interneuron marker. So, they are excluded from the recipe and N2 was included in the stage 5 recipe (FIG. 29). […] Sodium pyruvate was included in the stage 5 recipe (FIG. 30).

SMILES | impact on expression of PVALB [1] | factor contribution on expression of PVALB [1] | impact on expression of PVALB ([1]; listed as sodium pyruvate) | contribution to expression of PVALB (Parvalbumin) [2]
CCN(CC)S(=O)(=O)c1ccc(OC)c(N2CCN(C(=O)c3ccc(F)cc3C(F)(F)F)CC2)c1 [BT13] | significant negative impact | – | – | –
C=C[C@@]1(C)CC(=O)[C@]2(O)[C@@]3(C)[C@@H](O)CCC(C)(C)[C@@H]3[C@H](O)[C@H](OC(C)=O)[C@@]2(C)O1 [Forskolin] | – | 3.14 | – | –
CC(=O)C(=O)[O-].[Na+] [Sodium pyruvate] | significant effect | 17.1 | positive impact | contribute to PVALB expression

From patent US20230332103A1, “Methods and Compositions for Generating Human Forebrain Neural Progenitor Cells and for Maturation Thereof to Parvalbumin+ Interneurons” (Trailhead Biosystems Inc., priority 2021, published 2023)
